Assay results published in ChEMBL document CHEMBL1133328, “Heterocyclic bibenzimidazole derivatives as topoisomerase I inhibitors” (Bioorg Med Chem Lett, 2000).

Key:
[1] = target: T1, DNA topoisomerase 1 (Homo sapiens) (UniProt P11387); test: Relative effective concentration that produces the same degree of cleavage on the plasmid DNA in the presence of human topoisomerase-1
T1 sequence (whole entry): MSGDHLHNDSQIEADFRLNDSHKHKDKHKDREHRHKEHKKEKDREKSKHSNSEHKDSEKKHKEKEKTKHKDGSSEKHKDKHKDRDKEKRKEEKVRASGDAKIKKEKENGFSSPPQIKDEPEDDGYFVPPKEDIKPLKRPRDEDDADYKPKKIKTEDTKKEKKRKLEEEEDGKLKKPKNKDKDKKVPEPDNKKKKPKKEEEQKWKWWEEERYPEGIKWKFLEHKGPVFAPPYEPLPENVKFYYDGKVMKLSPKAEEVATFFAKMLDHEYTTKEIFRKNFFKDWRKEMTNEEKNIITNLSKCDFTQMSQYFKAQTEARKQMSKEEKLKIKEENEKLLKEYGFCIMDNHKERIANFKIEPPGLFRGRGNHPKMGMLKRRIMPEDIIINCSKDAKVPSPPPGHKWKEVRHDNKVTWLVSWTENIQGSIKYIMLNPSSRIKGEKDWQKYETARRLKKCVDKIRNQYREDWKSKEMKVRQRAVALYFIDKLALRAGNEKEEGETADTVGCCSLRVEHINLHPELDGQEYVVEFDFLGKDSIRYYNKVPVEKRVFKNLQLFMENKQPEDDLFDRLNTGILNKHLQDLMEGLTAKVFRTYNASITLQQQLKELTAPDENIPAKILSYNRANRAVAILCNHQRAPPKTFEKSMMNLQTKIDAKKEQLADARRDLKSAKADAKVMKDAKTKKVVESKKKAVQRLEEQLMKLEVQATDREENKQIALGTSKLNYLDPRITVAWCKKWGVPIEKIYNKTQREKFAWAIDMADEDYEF

[2] = tested on: Nucleic Acid; test: Compound-poly(dA).poly(dT) association constant at the melting temperature (81.5 degree C) DNA complex was determined; assay type: nucleic-acid assay
[3] = tested on: Nucleic Acid; test: Compound-poly(dA).poly(dT) association constant at the melting temperature (80 degree C) of the compound-DNA complex was determined; assay type: nucleic-acid assay
[4] = tested on: Nucleic Acid; test: Compound-poly(dA).poly(dT) association constant at the melting temperature (73.4 degree C) DNA complex was determined; assay type: nucleic-acid assay

Row | Topoisomerase-I activity [1] | K Tm [2] | K Tm [3] | K Tm [4] | SMILES
1 | 1 |  |  |  | c1ccc(-c2ccc3[nH]c(-c4ccc5[nH]c(-c6ccc7[nH]nnc7c6)nc5c4)nc3c2)cc1
2 | 1 |  |  |  | Oc1nc2ccc(-c3nc4cc(-c5nc6cc(-c7ccccc7)ccc6[nH]5)ccc4[nH]3)cc2nc1O
3 | 1 | 2.8e+08 M⁻¹ |  |  | c1ccc(-c2ccc3[nH]c(-c4ccc5[nH]c(-c6ccc7[nH]cnc7c6)nc5c4)nc3c2)cc1
4 | 5 |  | 1.9e+08 M⁻¹ |  | c1ccc(-c2ccc3[nH]c(-c4ccc5[nH]c(-c6ccc7cc[nH]c7c6)nc5c4)nc3c2)cc1
5 | > 100 |  |  |  | c1ccc(-c2ccc3[nH]c(-c4ccc5[nH]c(-c6ccc7nccnc7c6)nc5c4)nc3c2)cc1
6 | 50 |  |  | 3.5e+07 M⁻¹ | c1ccc(-c2ccc3[nH]c(-c4ccc5[nH]c(-c6ccc7[nH]ccc7c6)nc5c4)nc3c2)cc1
